From PubChem BioAssay (NCI)
Where “and” joins values, the source holds several entries; their conditions need not be identical. Identical values can stand only once.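 Five compound concentrations were applied to cells in 96-well plates for 48 hours; endpoints were derived by simple linear interpolation of the resulting dose-response curve. The concentration for 50% growth inhibition is given as GI50. Definition used: TGI = concentration required for complete inhibition of growth.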

Legend:
Experiment in all cases: DTP human tumour cell line panel, 48 h
[1] = tested on: BT-549 breast
[2] = tested on: CAKI-1 renal
[3] = tested on: COLO 205 colon
[4] = tested on: DU-145 prostate
[5] = tested on: HCT-15 colon
[6] = tested on: HOP-62 NSCLC
[7] = tested on: HS 578T breast
[8] = tested on: OVCAR-8 ovarian
[9] = tested on: SF-295 CNS
[10] = tested on: SK-MEL-5 melanoma

Compound	GI50 [1]	TGI [1]	GI50 [2]	TGI [2]	GI50 [3]	TGI [3]	GI50 [4]	TGI [4]	GI50 [5]	TGI [5]	GI50 [6]	TGI [6]	GI50 [7]	TGI [7]	GI50 [8]	TGI [8]	GI50 [9]	TGI [9]	GI50 [10]	TGI [10]
O=S(=O)(NCCNc1nccc(-c2c(-c3ccc(F)cc3)nc3sccn23)n1)c1ccc(O)cc1	3.14 µM	19.1 µM	4.07 µM	48.3 µM	2 µM	14.8 µM	3.17 µM	28.8 µM	5 µM	> 100 µM	14.3 µM	85.6 µM	6.48 µM	42.7 µM	1.98 µM	22.5 µM	10.4 µM	34.6 µM	1.39 µM	10.7 µM
Nc1c(C(=O)Nc2cccc(Cl)c2)sc2nc3c(cc12)C(O)CCC3 (stereo not given)	3.14 µM	38.5 µM	0.432 µM	30.4 µM	0.348 µM	3.53 µM	0.388 µM	16.3 µM	0.37 µM	> 100 µM	0.569 µM	23.9 µM	1.62 µM	> 74 µM	0.714 µM	22.9 µM	0.314 µM	16.3 µM	0.375 µM	18.3 µM
CC(=O)Oc1ccc(C2OC(c3ccc4ccccc4c3OC(C)=O)=NN2C(C)=O)c(OC(C)=O)c1 (stereo not given)	0.841 µM	76.3 µM	0.24 µM	5.44 µM	0.377 µM	> 32.3 µM	0.476 µM	> 100 µM	0.294 µM	> 68 µM	0.513 µM	> 100 µM	12 µM	> 100 µM	0.363 µM	> 100 µM	0.295 µM	14.8 µM	0.321 µM	> 32.3 µM
COC(=O)C1C(C(=O)O)C2(c3ccccc3)C(=O)C1(c1ccccc1)C(c1ccc(OC)cc1)=C2c1ccc(OC)cc1 (stereo not given)	15.8 µM	33.6 µM	20.9 µM	43.6 µM	16.4 µM	38.8 µM	19.9 µM	49.8 µM	38.6 µM	> 100 µM	20.4 µM	47.5 µM	22.1 µM	72.3 µM	15.9 µM	30.8 µM	30.3 µM	77.2 µM	16.8 µM	32.4 µM
COc1cc2c(Nc3ccc(-c4ccc(N)cc4)cc3)ncnc2c(OC)c1OC	7.99 µM	55 µM	0.655 µM	> 56.5 µM	2.6 µM	7.94 µM	18.4 µM	> 100 µM	0.607 µM	> 85.7 µM	24.8 µM	> 100 µM	11.5 µM	> 68 µM	5.46 µM	56.9 µM	1.5 µM	7.52 µM	1.94 µM	5.3 µM
CC(C)c1cnc(-c2cc(Cl)ccc2F)cc1Nc1ccncc1C(=O)NC(CO)CO	14.8 µM	31.9 µM	6.28 µM	68.7 µM	14.9 µM	33.9 µM	13.4 µM	42 µM	12.9 µM	26.9 µM	12.8 µM	32.9 µM	7.31 µM	30.6 µM	14.6 µM	49.8 µM	13.1 µM	26.6 µM	14.2 µM	27.5 µM
COc1cccc2nc(Nc3cccc(NC(=O)c4ccc(N5CCN(C)CC5)c(C(F)(F)F)c4)c3)ccc12	2.79 µM	9.39 µM	1.12 µM	3.46 µM	0.909 µM	1.83 µM	1.81 µM	6.38 µM	0.937 µM	2.03 µM	0.856 µM	1.74 µM	1.07 µM	2.93 µM	1.69 µM	5.93 µM	0.967 µM	1.92 µM	1.52 µM	5.03 µM
Cc1cc(O)ccc1C1(c2ccc(O)cc2C)OC(=O)c2ccccc21	17.1 µM	36.4 µM	16 µM	30.1 µM	16.8 µM	32.3 µM	18 µM	31.9 µM	16.3 µM	30.7 µM	16.7 µM	32.5 µM	18.9 µM	46.3 µM	23.3 µM	46.5 µM	16.2 µM	31.7 µM	18 µM	32.1 µM
CO/N=C(/C)COc1ccc2c(c1)oc(=O)c1cc(OC)ccc12	> 100 µM	> 100 µM	97.6 µM	> 100 µM	> 100 µM	> 100 µM	> 100 µM	> 100 µM	> 100 µM	> 100 µM	95.3 µM	> 100 µM	> 100 µM	> 100 µM	> 100 µM	> 100 µM	82.4 µM	> 100 µM	> 100 µM	> 100 µM
COc1ccc(OC)c(C2=C(c3cn(C)c4ccccc34)C(=O)NC2=O)c1	> 25 µM	> 25 µM	> 25 µM	> 25 µM	> 25 µM	> 25 µM	> 25 µM	> 25 µM	> 23.9 µM	> 25 µM	> 25 µM	> 25 µM	> 16.9 µM	> 25 µM	> 25 µM	> 25 µM	> 22.7 µM	> 25 µM	> 25 µM	> 25 µM
COc1ccc2c(c1)OCC1c3cc(OC)c4ccccc4c3OC21 (stereo not given)	11.5 µM	97.2 µM	5.05 µM	44.9 µM	7.98 µM	33.1 µM	18.8 µM	> 100 µM	6.06 µM	> 100 µM	14.7 µM	> 100 µM	11.3 µM	37 µM	44.4 µM	> 100 µM	2 µM	6.91 µM	5.11 µM	24.2 µM
C=C(C)COc1ccc2c(c1)CCC1C2CCC2(C)C(=O)/C(=N/O)CC12 (stereo not given)	–	21.2 µM	–	10.2 µM	–	14.4 µM	–	7.93 µM	–	7.52 µM	–	21.2 µM	–	27.7 µM	–	24.1 µM	–	19.3 µM	–	21.1 µM
COc1cc(/C=C2\CCC/C(=C\c3cc(CN4CCCC4)c(O)c(OC)c3)C2=O)cc(CN2CCCC2)c1O	4.79 µM	17.8 µM	5.51 µM	17.7 µM	1.19 µM	2.76 µM	4.63 µM	15.4 µM	2.34 µM	7.87 µM	2.93 µM	9.35 µM	5.75 µM	50.9 µM	3.27 µM	> 100 µM	9.89 µM	25.2 µM	4.12 µM	15.5 µM
COc1ccc2nc3cc([N+](=O)[O-])ccc3c(NCCO)c2c1	2.88 µM	7.02 µM	10.1 µM	30 µM	3.31 µM	17.4 µM	3.62 µM	–	7.24 µM	–	2.07 µM	5.19 µM	2.94 µM	26.2 µM	3.15 µM	18.8 µM	3.49 µM	15.7 µM	1.61 µM	3.26 µM
Cc1[nH]c(C(=O)Nc2cccc(OC3CCNCC3)c2)c(Cl)c1Cl	4.65 µM	18.1 µM	1.82 µM	3.39 µM	1.93 µM	4.02 µM	1.89 µM	3.52 µM	1.73 µM	3.36 µM	1.9 µM	4.53 µM	2.02 µM	5.16 µM	2.05 µM	4.31 µM	1.97 µM	3.96 µM	1.78 µM	3.23 µM
COc1ccccc1/C=C1\CCC(Cc2ccccc2)(CN(C)C)C1=O (stereo not given)	–	40.5 µM	–	51.8 µM	–	7.82 µM	–	> 100 µM	–	14.4 µM	–	> 69 µM	–	> 100 µM	–	22.9 µM	–	> 63.1 µM	–	11.9 µM
CCN1C(=O)/C(=c2\sc3n(c2=O)C2C(NN=3)N(CC)C(=O)N2CC)c2ccccc21 (stereo not given)	1.37 µM	14.4 µM	0.465 µM	32.2 µM	0.468 µM	11.3 µM	0.582 µM	29.2 µM	0.394 µM	> 100 µM	0.786 µM	> 42.6 µM	0.341 µM	31.6 µM	0.665 µM	> 100 µM	0.377 µM	6.64 µM	0.463 µM	7.44 µM
O=C(CCN1CCCCC1)c1csc2ccccc12	–	> 100 µM	–	> 100 µM	–	> 100 µM	–	> 100 µM	–	> 100 µM	–	> 100 µM	–	> 100 µM	–	> 100 µM	–	> 100 µM	–	> 100 µM
COc1ccc2[nH]c(C(=O)OCc3ccc4c(Br)cc(Br)c(O)c4n3)cc2c1	0.881 µM	2.16 µM	0.482 µM	1.83 µM	0.442 µM	1.92 µM	1.12 µM	2.33 µM	0.355 µM	1.23 µM	1.38 µM	3.34 µM	1.66 µM	4.97 µM	0.907 µM	2.64 µM	2.02 µM	5.33 µM	1.61 µM	2.97 µM
C=C(C(=O)c1ccccc1)C(NC(C)(C)C)c1ccccc1 (stereo not given)	2.13 µM	4.6 µM	1.91 µM	7.42 µM	1.29 µM	2.81 µM	3.11 µM	13.2 µM	1.88 µM	10 µM	3.38 µM	10.4 µM	5.56 µM	75.9 µM	3.02 µM	10.8 µM	2.9 µM	10.8 µM	1.45 µM	2.82 µM
Cc1c(O)cccc1C(=O)N[C@@H](CSc1ccccc1)[C@H](O)CN1C[C@H]2CCCC[C@H]2C[C@H]1C(=O)NC(C)(C)C	4.97 µM and 3.88 µM	21.1 µM and 17.1 µM	2.57 µM and 9.32 µM	6.56 µM and > 37.8 µM	2.24 µM and 4.05 µM	6.03 µM	6.58 µM and 8.27 µM	25.2 µM and 31.8 µM	1.77 µM and 3.11 µM	13.2 µM and 12.9 µM	7.26 µM and 5 µM	21.3 µM and 14.6 µM	4.82 µM and 4.87 µM	> 58 µM and 20.3 µM	6.56 µM and 7.87 µM	35.2 µM and 39.6 µM	2.53 µM and 3.49 µM	6.97 µM and 25.5 µM	3.12 µM and 5.11 µM	13.5 µM and 11.7 µM
CN1C(=O)C(N=Nc2ccc([N+](=O)[O-])cc2)SC1=S (stereo not given)	4.45 µM and 6.28 µM	42.8 µM and 40.6 µM	1.18 µM and 3.88 µM	7.8 µM and 50 µM	4 µM and 10 µM	18 µM and 23 µM	7.11 µM and 22.1 µM	41.6 µM and > 100 µM	2.63 µM and 6.8 µM	> 100 µM	9.55 µM and 12.2 µM	> 100 µM	2.47 µM and 16.2 µM	22.5 µM and > 100 µM	4.38 µM and 11 µM	> 100 µM	1.62 µM and 3.04 µM	6.27 µM and 24.9 µM	7.77 µM and 11.1 µM	28.9 µM and 27 µM
CCOC(=O)C1=C(C)NC2SC(=O)/C(=C\c3cccc(Cl)c3)N2C1c1ccccc1 (stereo not given)	> 100 µM	> 100 µM	> 100 µM	> 100 µM	> 100 µM	> 100 µM	> 100 µM	> 100 µM	> 100 µM	> 100 µM	> 100 µM	> 100 µM	90.4 µM	> 100 µM	> 100 µM	> 100 µM	> 100 µM	> 100 µM	58.7 µM	> 100 µM
Nc1nc(N)c2cc(S(=O)(=O)c3ccc4ccccc4c3)ccc2n1	–	> 100 µM	–	> 100 µM	6.37 µM	> 100 µM	7.78 µM	> 100 µM	–	> 100 µM	–	30.3 µM	–	> 73.8 µM	–	49.6 µM	–	> 56.3 µM	–	> 65.7 µM
O=C1/C(=C/c2ccc(Cl)cc2)CN(Cc2cn(CCCNc3ccnc4cc(Cl)ccc34)nn2)C/C1=C\c1ccc(Cl)cc1	1.64 µM	3.18 µM	0.734 µM	2.92 µM	0.565 µM	1.8 µM	1.16 µM	2.47 µM	0.283 µM	0.926 µM	1.47 µM	2.94 µM	1.39 µM	5.95 µM	0.572 µM	1.41 µM	0.708 µM	1.84 µM	1.72 µM	3.14 µM
